# The source made the active and inactive calls.
# Legend:
# [1] = molecular target: Dual specificity protein phosphatase 6 (Rattus norvegicus, UniProt Q64346); experiment: inhibition of rat DUSP6 enzyme activity – biochemical, in vitro, primary screen (AID 425)
# [2] = molecular target: T1, Dual specificity protein phosphatase 3 (Homo sapiens, UniProt P51452); experiment: VHR1 phosphatase inhibitors, primary screen, biochemical, absorbance, uHTS (AID 1654)
# [3] = molecular target: T1, Dual specificity protein phosphatase 3; experiment: VHR1 phosphatase inhibitors, biochemical (AID 1878)
# [4] = molecular target: T2, Voltage-gated N-type calcium channel alpha-1B subunit/Amyloid beta A4 precursor protein-binding family A member 1 (Homo sapiens, UniProt Q00975+Q02410); type: protein assay
# [5] = Counterscreen for AddAB inhibitors: absorbance-based bacterial cell-based high throughput dose response assay for inhibitors of bacterial viability. [Related pubchem assays (depositor defined):AID435030, AID449728, AID449731, AID488942, AID488955, AID488956]; type: functional
# [6] = NIH3T3 cell viability loss – ATP luminescence, mouse fibroblasts, counter-screen, dose response (AID 2010); type: functional, cell-based;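 note: cells exposed to compound for about 90 hours before reading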
# [7] = molecular target: T2, Voltage-gated N-type calcium channel alpha-1B subunit/Amyloid beta A4 precursor protein-binding family A member 1; type: protein assay; remark: listed apart in the source
# Vero = experiment: cells; type: functional; details: Chlorocebus sabaeus
# [8] = Trypanosoma cruzi growth suppression in host cells – NIH3T3 host cells, beta-gal luminescence, confirmation (AID 2044); type: functional, cell-based;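 note: intracellular parasites grown in NIH/3T3 mouse fibroblasts as host cells; luminescent beta-galactosidase reporter signal from transgenic T. cruzi replicating inside host cells; inhibitors lower the luminescence signal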
# Exodeoxyribonuclease V = Exodeoxyribonuclease V (Escherichia coli (strain K12), UniProt P04993+P07648+P08394); experiment: RecBCD inhibition via phage-restricted bacterial growth – absorbance, V66 E. coli, mutant T4 phage, counter-screen for AddAB inhibitor project, dose response (AID 492957); type: functional, cell-based, Escherichia coli str. K-12 substr. MG1655
# [9] = molecular target: Voltage-dependent T-type calcium channel subunit alpha-1H (Homo sapiens, UniProt O95180); experiment: inhibition of CACNA1H calcium flux – cell-based, SynthLib3 library, HEK293 Cav3.2, fluorescence (AID 493041); type: functional
# [10] = molecular target: Intestinal-type alkaline phosphatase (Mus musculus, UniProt P24822); experiment: PubChem AID 488785; type: functional
# [11] = molecular target: T3, Alkaline phosphatase, tissue-nonspecific isozyme (Homo sapiens, UniProt P05186); experiment: TNAP enzyme inhibition by screening hits, dose response, selectivity assay for mouse IAP inhibitor project, biochemical, human TNAP, uHTS hits (AID 488906); type: functional
# T3 sequence (P05186 whole entry): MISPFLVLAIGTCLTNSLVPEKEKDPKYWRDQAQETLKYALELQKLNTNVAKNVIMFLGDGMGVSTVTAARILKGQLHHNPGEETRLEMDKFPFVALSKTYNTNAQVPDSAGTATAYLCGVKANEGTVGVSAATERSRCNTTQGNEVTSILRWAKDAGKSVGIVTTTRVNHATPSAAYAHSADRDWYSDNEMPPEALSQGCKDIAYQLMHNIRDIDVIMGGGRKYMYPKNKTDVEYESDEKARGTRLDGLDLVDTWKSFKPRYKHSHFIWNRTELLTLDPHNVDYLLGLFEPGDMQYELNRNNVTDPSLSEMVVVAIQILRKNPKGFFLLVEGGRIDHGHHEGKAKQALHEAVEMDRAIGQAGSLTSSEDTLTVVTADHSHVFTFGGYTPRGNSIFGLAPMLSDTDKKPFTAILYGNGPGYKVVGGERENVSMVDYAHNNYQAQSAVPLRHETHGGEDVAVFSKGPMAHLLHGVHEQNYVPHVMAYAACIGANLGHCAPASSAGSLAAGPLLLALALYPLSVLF
# [12] = molecular target: Intestinal-type alkaline phosphatase (Homo sapiens, UniProt P09923); experiment: inhibition of human intestinal alkaline phosphatase – biochemical, dose response (AID 488876); type: functional
# SUMO-activating enzyme [13] = molecular target: T4, SUMO-activating enzyme (Homo sapiens, UniProt Q9UBT2); experiment: blockers of SAE1/SAE2–UBC9 SUMO transfer – biochemical, HTRF, uHTS, primary screen (AID 2006); type: protein-complex assay
# Hexokinase HKDC1 = molecular target: T5, Hexokinase HKDC1 (Homo sapiens, UniProt Q2TB90); experiment: activation of HKDC1 glucose phosphorylation – biochemical, W721R variant, dose response (AID 504730); type: functional
# T5 sequence (Q2TB90 whole entry): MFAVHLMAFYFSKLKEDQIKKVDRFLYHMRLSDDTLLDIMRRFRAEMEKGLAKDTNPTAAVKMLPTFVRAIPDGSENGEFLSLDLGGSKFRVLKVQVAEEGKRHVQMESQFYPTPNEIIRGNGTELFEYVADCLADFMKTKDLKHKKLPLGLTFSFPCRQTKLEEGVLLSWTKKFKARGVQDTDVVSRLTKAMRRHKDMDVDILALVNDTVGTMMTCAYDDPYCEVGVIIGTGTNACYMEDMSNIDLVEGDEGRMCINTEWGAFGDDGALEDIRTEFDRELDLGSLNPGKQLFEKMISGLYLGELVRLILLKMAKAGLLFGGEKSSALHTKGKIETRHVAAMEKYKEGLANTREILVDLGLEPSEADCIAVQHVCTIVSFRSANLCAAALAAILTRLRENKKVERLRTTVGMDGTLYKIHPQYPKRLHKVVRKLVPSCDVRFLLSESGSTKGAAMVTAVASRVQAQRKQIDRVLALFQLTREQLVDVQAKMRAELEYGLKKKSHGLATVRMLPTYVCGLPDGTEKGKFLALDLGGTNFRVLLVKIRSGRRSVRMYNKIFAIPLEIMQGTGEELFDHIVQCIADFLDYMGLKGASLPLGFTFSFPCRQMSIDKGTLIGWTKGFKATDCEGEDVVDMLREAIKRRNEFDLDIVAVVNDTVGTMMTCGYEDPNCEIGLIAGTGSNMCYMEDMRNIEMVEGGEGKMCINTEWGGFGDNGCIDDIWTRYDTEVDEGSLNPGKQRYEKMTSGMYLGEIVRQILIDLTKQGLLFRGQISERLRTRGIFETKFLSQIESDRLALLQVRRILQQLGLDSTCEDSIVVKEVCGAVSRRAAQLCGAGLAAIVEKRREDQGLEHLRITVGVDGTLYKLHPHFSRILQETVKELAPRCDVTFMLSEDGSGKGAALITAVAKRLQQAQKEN
# SUMO-activating enzyme [14] = molecular target: T4, SUMO-activating enzyme; experiment: blockers of UBC9-mediated SUMO conjugation – biochemical, AlphaScreen, SUMOylation inhibitor project, confirmation (AID 2018); type: functional
# Mu-type opioid receptor = Mu-type opioid receptor (Homo sapiens, UniProt P35372); experiment: SAR Analysis of Agonists of the MOR Receptor using an Image-Based Assay - Set 3. [Related pubchem assays (depositor defined):AID1777, AID1785, AID1786, AID1966, AID2133, AID2136, AID2284, AID2285, AID2352]; type: functional
# [15] = molecular target: Delta-type opioid receptor (Homo sapiens, UniProt P41143); experiment: SAR Analysis of Agonists of the DOR Receptor using an Image-Based Assay - Set 3. [Related pubchem assays (depositor defined):AID1777, AID1786]; type: functional
# [16] = molecular target: T6, Kappa-type opioid receptor (Homo sapiens, UniProt P41145); experiment: kappa opioid receptor activation by imaging – image-based, set 3, SAR follow-up (AID 488833); type: functional
# [17] = molecular target: T6, Kappa-type opioid receptor; experiment: SAR analysis of small molecule agonists of the kappa opioid receptor via a luminescent beta-arrestin assay - Set 3. [Related pubchem assays (depositor defined):AID1777, AID1785, AID1786, AID1966, AID2133, AID2136, AID2284, AID2500]; type: functional
# [18] = molecular target: Nucleotide-binding oligomerization domain-containing protein 2 (Homo sapiens, UniProt Q9HC29); experiment: inhibition of MDP-driven NOD2 NF-kB reporter – cell-based, set 3, SAR follow-up (AID 2799); type: functional
# [19] = molecular target: Nucleotide-binding oligomerization domain-containing protein 1 (Homo sapiens, UniProt Q9Y239); experiment: SAR analysis of compounds that inhibit NOD1 - Set 3. [Related pubchem assays (depositor defined):AID1566, AID1575, AID1578, AID1849, AID1852, AID2333, AID2335, AID2466]; type: functional
# Tumor necrosis factor = Tumor necrosis factor (Homo sapiens, UniProt P01375); experiment: analog potency on TNFa NF-kB signaling – cell-based, set 3, SAR follow-up (AID 2801); type: functional
# [20] = molecular target: Glyceraldehyde-3-phosphate dehydrogenase (Homo sapiens, UniProt P04406)
# Bcl-2-related protein A1 [21] = molecular target: T7, Bcl-2-related protein A1 (Mus musculus, UniProt Q07440); experiment: small-molecule antagonists of Bfl-1/BH3 interaction – biochemical, TR-FRET, mouse Bfl-1, confirmation (AID 621);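 note: TR-FRET binding of GST-Bfl-1 to FITC-labelled Bid peptide via terbium antibody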
# T7 sequence (Q07440 whole entry): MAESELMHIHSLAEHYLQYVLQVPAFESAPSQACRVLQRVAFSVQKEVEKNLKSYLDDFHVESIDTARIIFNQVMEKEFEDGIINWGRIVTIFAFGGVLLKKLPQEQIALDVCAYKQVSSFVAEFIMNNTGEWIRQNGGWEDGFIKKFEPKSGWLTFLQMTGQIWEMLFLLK
# Bcl-2-related protein A1 [22] = molecular target: T7, Bcl-2-related protein A1; experiment: Bfl-1 binding inhibitors, SAR follow-up, biochemical, fluorescence polarization (AID 1070)
# HEK293 = experiment: SAR analysis of compounds that are cytotoxic to HEK293 - Set 3. [Related pubchem assays (depositor defined):AID1575, AID1578, AID1848, AID1849, AID2001, AID2333, AID2334, AID2335, AID2337, AID2469]; type: functional, cell-based; details: Homo sapiens
# CAAX prenyl protease 2 = CAAX prenyl protease 2 (Saccharomyces cerevisiae S288c, UniProt Q03530); type: biochemical
# [23] = toxicity toward cultured mammalian cells – cell-based, plate reader, cherry-pick samples, cytotoxicity control, dose response (AID 504397); type: functional
# T2 sequence (Q00975 whole entry): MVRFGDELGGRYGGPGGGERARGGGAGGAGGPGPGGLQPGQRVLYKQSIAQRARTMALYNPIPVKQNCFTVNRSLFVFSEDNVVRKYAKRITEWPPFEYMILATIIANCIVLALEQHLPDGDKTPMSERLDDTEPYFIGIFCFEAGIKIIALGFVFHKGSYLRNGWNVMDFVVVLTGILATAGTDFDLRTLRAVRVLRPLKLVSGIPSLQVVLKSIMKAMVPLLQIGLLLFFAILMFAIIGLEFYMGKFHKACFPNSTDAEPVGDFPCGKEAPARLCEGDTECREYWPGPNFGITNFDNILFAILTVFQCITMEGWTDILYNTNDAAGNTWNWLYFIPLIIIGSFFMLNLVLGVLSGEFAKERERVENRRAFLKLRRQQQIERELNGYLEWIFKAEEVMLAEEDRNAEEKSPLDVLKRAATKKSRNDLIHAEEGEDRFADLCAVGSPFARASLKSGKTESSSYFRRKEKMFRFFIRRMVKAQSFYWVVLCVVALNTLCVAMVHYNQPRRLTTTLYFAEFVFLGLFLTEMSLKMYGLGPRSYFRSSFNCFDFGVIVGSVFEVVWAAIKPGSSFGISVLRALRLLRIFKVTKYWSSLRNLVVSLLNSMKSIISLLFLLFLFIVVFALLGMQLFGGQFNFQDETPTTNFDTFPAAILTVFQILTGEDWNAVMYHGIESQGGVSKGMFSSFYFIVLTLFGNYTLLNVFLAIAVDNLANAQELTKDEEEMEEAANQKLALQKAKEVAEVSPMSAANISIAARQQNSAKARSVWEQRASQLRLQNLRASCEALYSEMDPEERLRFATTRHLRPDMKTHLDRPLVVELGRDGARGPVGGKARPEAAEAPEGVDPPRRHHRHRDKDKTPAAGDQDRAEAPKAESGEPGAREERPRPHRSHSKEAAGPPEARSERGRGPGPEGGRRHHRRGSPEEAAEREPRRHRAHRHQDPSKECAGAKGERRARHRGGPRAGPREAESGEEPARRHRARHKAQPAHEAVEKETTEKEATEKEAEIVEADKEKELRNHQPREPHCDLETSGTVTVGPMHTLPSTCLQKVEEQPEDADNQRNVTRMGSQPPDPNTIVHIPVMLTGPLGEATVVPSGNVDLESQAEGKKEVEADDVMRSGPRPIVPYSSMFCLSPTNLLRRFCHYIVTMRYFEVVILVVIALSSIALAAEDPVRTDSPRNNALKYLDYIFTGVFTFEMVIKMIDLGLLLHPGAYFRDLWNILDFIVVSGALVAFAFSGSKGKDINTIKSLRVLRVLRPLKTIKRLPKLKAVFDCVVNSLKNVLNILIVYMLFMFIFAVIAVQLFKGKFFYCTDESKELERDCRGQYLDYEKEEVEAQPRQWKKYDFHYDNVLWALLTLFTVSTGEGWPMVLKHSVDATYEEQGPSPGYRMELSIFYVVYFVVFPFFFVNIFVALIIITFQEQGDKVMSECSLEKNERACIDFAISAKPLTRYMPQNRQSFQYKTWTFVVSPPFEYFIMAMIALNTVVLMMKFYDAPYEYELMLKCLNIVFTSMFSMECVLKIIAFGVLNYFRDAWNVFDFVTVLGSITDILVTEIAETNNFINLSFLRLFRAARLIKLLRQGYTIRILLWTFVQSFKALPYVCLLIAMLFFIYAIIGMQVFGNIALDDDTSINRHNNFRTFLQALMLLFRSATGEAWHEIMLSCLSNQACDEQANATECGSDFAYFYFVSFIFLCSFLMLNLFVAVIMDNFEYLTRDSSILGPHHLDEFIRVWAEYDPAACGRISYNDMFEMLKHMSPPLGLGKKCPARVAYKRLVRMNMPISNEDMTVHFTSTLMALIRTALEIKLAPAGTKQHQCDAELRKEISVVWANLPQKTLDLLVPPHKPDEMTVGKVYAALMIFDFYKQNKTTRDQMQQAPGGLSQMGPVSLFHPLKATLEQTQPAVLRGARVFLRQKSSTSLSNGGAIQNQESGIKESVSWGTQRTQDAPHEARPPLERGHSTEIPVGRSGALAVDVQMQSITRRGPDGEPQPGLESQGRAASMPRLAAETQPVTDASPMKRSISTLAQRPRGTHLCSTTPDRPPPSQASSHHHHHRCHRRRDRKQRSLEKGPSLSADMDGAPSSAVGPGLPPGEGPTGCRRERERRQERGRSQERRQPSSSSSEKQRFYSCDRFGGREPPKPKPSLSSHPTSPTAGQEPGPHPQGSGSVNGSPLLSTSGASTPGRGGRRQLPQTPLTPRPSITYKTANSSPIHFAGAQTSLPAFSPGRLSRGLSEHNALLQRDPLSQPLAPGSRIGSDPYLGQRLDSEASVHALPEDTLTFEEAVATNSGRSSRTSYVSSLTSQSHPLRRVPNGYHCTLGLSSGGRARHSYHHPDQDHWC
# T2 sequence (Q02410 whole entry): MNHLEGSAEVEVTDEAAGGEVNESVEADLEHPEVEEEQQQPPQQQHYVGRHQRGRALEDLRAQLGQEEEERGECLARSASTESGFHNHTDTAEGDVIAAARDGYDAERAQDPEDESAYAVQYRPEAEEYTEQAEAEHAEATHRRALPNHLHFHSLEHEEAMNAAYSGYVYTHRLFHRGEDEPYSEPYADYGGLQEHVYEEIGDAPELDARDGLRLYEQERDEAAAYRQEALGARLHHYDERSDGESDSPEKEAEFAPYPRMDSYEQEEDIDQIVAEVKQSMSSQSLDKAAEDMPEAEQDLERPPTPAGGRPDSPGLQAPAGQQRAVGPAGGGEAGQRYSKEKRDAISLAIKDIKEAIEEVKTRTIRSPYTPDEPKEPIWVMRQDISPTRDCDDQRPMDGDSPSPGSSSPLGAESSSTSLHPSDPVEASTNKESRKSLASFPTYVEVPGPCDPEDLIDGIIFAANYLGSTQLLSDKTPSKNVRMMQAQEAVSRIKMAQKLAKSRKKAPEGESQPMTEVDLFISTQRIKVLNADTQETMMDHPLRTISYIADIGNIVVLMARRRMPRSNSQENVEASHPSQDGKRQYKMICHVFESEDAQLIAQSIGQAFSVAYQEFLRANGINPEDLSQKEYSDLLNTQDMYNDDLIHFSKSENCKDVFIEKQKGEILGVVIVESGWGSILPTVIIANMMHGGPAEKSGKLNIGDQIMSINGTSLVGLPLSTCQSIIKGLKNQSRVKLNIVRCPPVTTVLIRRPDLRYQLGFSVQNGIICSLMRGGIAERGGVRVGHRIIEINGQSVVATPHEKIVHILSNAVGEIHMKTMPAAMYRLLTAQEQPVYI
# T1 sequence (P51452 whole entry): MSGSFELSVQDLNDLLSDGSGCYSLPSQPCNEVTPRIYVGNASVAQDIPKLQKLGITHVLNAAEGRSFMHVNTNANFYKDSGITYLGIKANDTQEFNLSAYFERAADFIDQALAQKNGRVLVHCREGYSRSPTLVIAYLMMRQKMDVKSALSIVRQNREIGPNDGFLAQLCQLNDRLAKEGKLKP
# T6 sequence (P41145 whole entry): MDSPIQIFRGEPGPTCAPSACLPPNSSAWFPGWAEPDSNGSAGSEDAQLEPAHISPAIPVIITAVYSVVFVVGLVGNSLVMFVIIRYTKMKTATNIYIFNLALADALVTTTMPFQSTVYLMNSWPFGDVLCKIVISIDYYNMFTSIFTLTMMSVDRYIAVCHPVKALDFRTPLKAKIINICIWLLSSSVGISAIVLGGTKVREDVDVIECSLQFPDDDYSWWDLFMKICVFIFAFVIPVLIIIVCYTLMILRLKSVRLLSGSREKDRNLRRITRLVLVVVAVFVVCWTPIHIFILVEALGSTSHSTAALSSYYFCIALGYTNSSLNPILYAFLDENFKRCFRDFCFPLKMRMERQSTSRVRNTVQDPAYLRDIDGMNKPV
# T4 sequence (Q9UBE0 whole entry): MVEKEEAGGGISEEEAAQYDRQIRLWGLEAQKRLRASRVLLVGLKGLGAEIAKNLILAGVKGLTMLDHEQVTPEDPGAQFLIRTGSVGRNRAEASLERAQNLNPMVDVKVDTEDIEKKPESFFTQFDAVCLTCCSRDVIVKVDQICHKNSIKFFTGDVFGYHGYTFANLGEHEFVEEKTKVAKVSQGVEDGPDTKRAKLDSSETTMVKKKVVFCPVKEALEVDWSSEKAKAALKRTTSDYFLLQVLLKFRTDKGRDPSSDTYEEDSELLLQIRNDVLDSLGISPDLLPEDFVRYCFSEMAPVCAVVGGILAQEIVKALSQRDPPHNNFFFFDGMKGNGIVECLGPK
# T4 sequence (Q9UBT2 whole entry): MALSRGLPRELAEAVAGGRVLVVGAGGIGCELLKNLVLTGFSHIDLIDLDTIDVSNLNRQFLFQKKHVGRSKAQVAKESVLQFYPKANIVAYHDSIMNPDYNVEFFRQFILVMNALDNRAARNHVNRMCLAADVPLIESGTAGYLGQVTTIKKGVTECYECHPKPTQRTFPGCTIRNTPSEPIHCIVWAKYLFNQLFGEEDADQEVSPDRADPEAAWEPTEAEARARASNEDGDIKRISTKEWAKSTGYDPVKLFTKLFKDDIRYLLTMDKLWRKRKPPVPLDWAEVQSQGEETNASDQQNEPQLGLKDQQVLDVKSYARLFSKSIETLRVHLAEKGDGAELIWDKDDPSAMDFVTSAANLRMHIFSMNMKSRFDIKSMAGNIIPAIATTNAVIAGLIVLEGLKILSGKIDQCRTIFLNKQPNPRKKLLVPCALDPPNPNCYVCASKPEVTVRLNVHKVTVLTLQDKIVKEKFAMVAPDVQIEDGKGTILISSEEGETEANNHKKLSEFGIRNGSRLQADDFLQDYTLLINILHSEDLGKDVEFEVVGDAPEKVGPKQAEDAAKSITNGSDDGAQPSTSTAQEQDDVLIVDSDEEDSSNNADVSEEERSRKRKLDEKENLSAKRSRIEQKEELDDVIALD
# Chain of Tumor necrosis factor (P01375 whole entry): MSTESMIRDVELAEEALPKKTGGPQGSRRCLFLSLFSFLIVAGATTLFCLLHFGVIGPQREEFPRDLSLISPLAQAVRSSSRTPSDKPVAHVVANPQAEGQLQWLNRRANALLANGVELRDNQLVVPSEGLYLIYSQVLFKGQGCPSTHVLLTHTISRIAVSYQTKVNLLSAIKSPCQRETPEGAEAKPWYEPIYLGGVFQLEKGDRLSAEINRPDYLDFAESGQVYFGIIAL
smiles,measurement,setting,value
Cc1ccc(NC(=O)Cn2c(O)c(N=NC(=O)c3cc([N+](=O)[O-])ccc3O)c3ccccc32)cc1,IC50,[1],31 µM (active)
same,IC50,[2],12.9 µM (active)
same,IC50,[3],6.94 µM (active)
O=C(NCc1ccco1)c1ccc([N+](=O)[O-])o1,IC50,[4],4.6 µM (active)
same,IC50,[5],> 39.5 µM (inactive)
same,EC50,[6],> 60 µM (not active)
same,IC50,[7],34.6 µM (active)
same,CC50,Vero,22.8 µM (active)
same,EC50,[8],0.128 µM (active)
same,IC50,Exodeoxyribonuclease V,113 µM (inactive)
CC(C)CCN1CCC[C@H](NC(=O)COc2ccc(F)c(Cl)c2)C1,EC50,[9],10 µM (active)
S=C(NCCC(c1ccccc1)c1ccccc1)Nc1ccc(Cl)cc1,IC50,[10],9.61 µM (active)
same,IC50,[11],> 100 µM (inactive)
same,IC50,[12],> 100 µM (inactive)
CCOc1ccc(/C=C2/SC(=S)N(CCC(=O)Nc3ccc(C(=O)O)cc3)C2=O)cc1,IC50,[4],5.5 µM (active)
same,IC50,[7],> 50 µM (inactive)
same,IC50,SUMO-activating enzyme [13],23.6 µM (active)
same,EC50,Hexokinase HKDC1,> 80 µM (inactive)
same,IC50,SUMO-activating enzyme [14],16.8 µM (active)
FC(F)(F)c1ccc(CSc2nnc(-c3ccccn3)n2Cc2ccco2)cc1,EC50,Mu-type opioid receptor,> 32 µM (inactive)
same,EC50,[15],> 64 µM (inactive)
same,EC50,[16],1.22 µM (active)
same,EC50,[17],2.77 µM (active)
COc1ccc(-c2cc(N)n(S(=O)(=O)c3ccc(Cl)cc3)n2)cc1OC,IC50,[18],> 20 µM (inactive)
same,IC50,[19],> 20 µM (inactive)
same,IC50,Tumor necrosis factor,> 20 µM (inactive)
same,IC50,[20],> 100 µM (not active)
same,IC50,Bcl-2-related protein A1 [21],> 100 µM (not active)
same,IC50,Bcl-2-related protein A1 [22],> 100 µM (not active)
same,IC50,HEK293,> 20 µM (inactive)
CC(=O)N(C)c1ccc(NC(=O)/C=C/c2ccccc2Cl)cc1,AC50,CAAX prenyl protease 2,2.06 µM (active)
same,AC50,[23],> 350 µM (inactive)

# — ChEMBL document CHEMBL1201862, “PubChem BioAssay data set” (2004)
